Target: T1, KV7.1 (KCNQ1) channel, IK(S) (Rattus norvegicus, UniProt Q9Z0N7)
T1 construct: native IK(S) in H9c2 cells
T1 sequence (Q9Z0N7 1-669): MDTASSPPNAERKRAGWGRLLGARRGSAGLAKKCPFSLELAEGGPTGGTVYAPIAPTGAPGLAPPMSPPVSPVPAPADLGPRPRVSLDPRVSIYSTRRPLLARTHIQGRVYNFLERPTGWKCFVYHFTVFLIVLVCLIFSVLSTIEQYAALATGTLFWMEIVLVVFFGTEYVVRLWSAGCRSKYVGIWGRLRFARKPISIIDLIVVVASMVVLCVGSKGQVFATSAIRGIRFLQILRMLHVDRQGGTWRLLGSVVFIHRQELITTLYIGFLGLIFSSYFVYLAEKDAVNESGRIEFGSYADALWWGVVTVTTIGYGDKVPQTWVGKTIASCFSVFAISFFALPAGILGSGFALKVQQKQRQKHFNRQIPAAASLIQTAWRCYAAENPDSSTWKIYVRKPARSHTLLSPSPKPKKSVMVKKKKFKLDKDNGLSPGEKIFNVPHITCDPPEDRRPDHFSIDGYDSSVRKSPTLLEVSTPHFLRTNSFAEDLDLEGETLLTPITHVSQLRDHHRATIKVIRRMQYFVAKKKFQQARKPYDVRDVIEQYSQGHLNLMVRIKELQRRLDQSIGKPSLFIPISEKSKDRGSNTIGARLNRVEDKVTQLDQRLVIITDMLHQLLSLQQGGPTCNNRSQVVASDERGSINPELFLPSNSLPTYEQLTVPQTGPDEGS
Assay: whole-cell patch clamp of native IK(S) in H9c2 cells
Format: cell-based

## CS(=O)(=O)CCNCc1ccc(-c2ccc3ncnc(Nc4ccc(OCc5cccc(F)c5)c(Cl)c4)c3c2)o1 [LAP, lapatinib]
  IC50: 1840 nM
